We go through 6 compounds from paper PMC9986876, “Prediction of Antileishmanial Compounds: General Model, Preparation, and Evaluation of 2-Acylpyrrole Derivatives” (Journal of Chemical Information and Modeling, 2022).

Series [1] can be described thus: Cytotoxicity assay on macrophages (resazurin). The note with it: mouse, J774 macrophages, values marked e correspond to 100 μg/mL, the higher dose tested. It counts as cell-based, BALB/c mice. How it is done:
The assay was carried out as previously described.[30] J774 macrophages cell lines were seeded (5 × 10^4 cells/well) in 96-well flat-bottom microplates with 100 μL of RPMI 1640 medium. The cells were allowed to attach for 24 h at 37 °C and 5% CO2, and the medium was replaced by different concentrations of the compounds in 200 μL of medium and exposed for another 24 h. Growth controls and signal-to-noise were also included. Afterward, a volume of 20 μL of 2.5 mM resazurin solution was added, and plates were returned to the incubator for another 3 h to evaluate cell viability. The reduction of resazurin was determined by fluorometry as in the promastigote assay. Each concentration was assayed three times.
A general note: Alamar Blue is a resazurin reagent that responds to reducing activity.

Series [2] concerns L. amazonensis (MHOM/Br/79/Maria) promastigotes. The series can be described thus: In vitro promastigote susceptibility assay (resazurin). It counts as cell-based. The note with it: for SI (selectivity index, SI = CC50/IC50): CC50 J774 / IC50 L. amazonensis promastigotes; for IC50: Leishmania amazonensis, L. amazonensis promastigotes, 48 h at 26 °C, triplicate, N/A = not active at 100 μg/mL. On the procedure:
(§1) The following species of Leishmania were used: L. donovani (MHOM/IN/80/DD8) was purchased (ATCC, USA) and L. amazonensis (MHOM/Br/79/Maria) was kindly provided by Prof. Alfredo Toraño (Instituto de Salud Carlos III, Madrid). Promastigotes were cultured in Schneider’s insect medium supplemented with 10% heat-inactivated fetal bovine serum (FBS) and 1000 U/L of penicillin plus 100 mg/L of streptomycin in 25 mL culture flasks at 26 °C. […] New samples of the compounds have been prepared according to the protocol described above, and subsequently solutions of the chemical compound to be assayed have been dissolved in DMSO at 50 mg/mL. […] Growth control and signal-to-noise control were also included. The final solvent (DMSO) concentrations never exceeded 0.5% (v/v) warranting no effect on parasite proliferation or morphology. After 48 h at 26 °C, 20 μL of a 2.5 mM resazurin solution was added to each well and the plates were returned to the incubator for another 3 h. […] Growth inhibition (%) was calculated by 100 – [(RFU treated wells – RFU signal-to-noise)/(RFU untreated – RFU signal-to-noise) × 100]. All tests were carried out in triplicate. Miltefosine (Sigma-Merck, Madrid, Spain) was used as the reference drug and was evaluated under the same conditions. […] The selectivity index (SI) was calculated as the ratio between cytotoxicity (CC50) and activity against parasites (IC50).

For series [3], the system named is L. donovani (MHOM/IN/80/DD8) promastigotes. Described as above. It counts as cell-based. The note with it: for SI (selectivity index, SI = CC50/IC50): CC50 J774 / IC50 L. donovani promastigotes; for IC50: Leishmania donovani, L. donovani promastigotes, 48 h at 26 °C, triplicate, N/A = not active at 100 μg/mL. On the procedure:
as §1

The test system of a further series is L. donovani amastigotes. Description: In vitro intracellular amastigote susceptibility assay in J774 macrophages. The note with it: for IC50: Leishmania donovani, L. donovani intracellular amastigotes in J774, 48 h, N/A = not active at 100 μg/mL. It counts as cell-based. On the procedure: The following species of Leishmania were used: L. donovani (MHOM/IN/80/DD8) was purchased (ATCC, USA) and L. amazonensis (MHOM/Br/79/Maria) was kindly provided by Prof. Alfredo Toraño (Instituto de Salud Carlos III, Madrid). Promastigotes were cultured in Schneider’s insect medium supplemented with 10% heat-inactivated fetal bovine serum (FBS) and 1000 U/L of penicillin plus 100 mg/L of streptomycin in 25 mL culture flasks at 26 °C. The assay was carried out as previously described.[29] Briefly, 5 × 10^4 J774 macrophages and stationary promastigotes in a 1:5 ratio were seeded in each well of a microtiter plate, suspended in 200 μL of culture medium, and incubated for 24 h at 33 °C in a 5% CO2 chamber. After this first incubation, the temperature was increased up to 37 °C for another 24 h. Thereafter, cells were washed several times in culture medium by centrifugation at 1.500g for 5 min in order to remove free non-internalized promastigotes. Finally, the supernatant was replaced by 200 μL/well of culture medium containing 2-fold serial dilutions of the test compounds as in promastigotes assay. Growth control and signal-to-noise were also included. Following incubation for 48 h at 37 °C and 5% CO2, the culture medium was replaced by 200 μL/well of the lysis solution (RPMI-1640 with 0.048% HEPES and 0.01% SDS) and incubated at room temperature for 20 min. Thereafter, the plates were centrifuged at 3.500g for 5 min and the lysis solution was replaced by 200 μL/well of Schneider’s insect medium. The culture plates were then incubated at 26 °C for another 4 days to allow transformation of viable amastigotes into promastigotes and proliferation. Afterward, 20 μL/well of 2.5 mM resazurin was added and incubated for another 3 h. Finally, fluorescence emission was measured and IC50 was estimated as described above. All tests were carried out in triplicate. […] The IC50 and SI were calculated as in the previous section.

The test system of series [4] is L. amazonensis amastigotes. The series is described as above. It counts as cell-based. Particulars: for IC50: Leishmania amazonensis, L. amazonensis intracellular amastigotes in J774, 48 h, N/A = not active at 100 μg/mL. On the procedure: The following species of Leishmania were used: L. donovani (MHOM/IN/80/DD8) was purchased (ATCC, USA) and L. amazonensis (MHOM/Br/79/Maria) was kindly provided by Prof. Alfredo Toraño (Instituto de Salud Carlos III, Madrid). Promastigotes were cultured in Schneider’s insect medium supplemented with 10% heat-inactivated fetal bovine serum (FBS) and 1000 U/L of penicillin plus 100 mg/L of streptomycin in 25 mL culture flasks at 26 °C. The assay was carried out as previously described.[29] Briefly, 5 × 10^4 J774 macrophages and stationary promastigotes in a 1:5 ratio were seeded in each well of a microtiter plate, suspended in 200 μL of culture medium, and incubated for 24 h at 33 °C in a 5% CO2 chamber. After this first incubation, the temperature was increased up to 37 °C for another 24 h. Thereafter, cells were washed several times in culture medium by centrifugation at 1.500g for 5 min in order to remove free non-internalized promastigotes. Finally, the supernatant was replaced by 200 μL/well of culture medium containing 2-fold serial dilutions of the test compounds as in promastigotes assay. Growth control and signal-to-noise were also included. Following incubation for 48 h at 37 °C and 5% CO2, the culture medium was replaced by 200 μL/well of the lysis solution (RPMI-1640 with 0.048% HEPES and 0.01% SDS) and incubated at room temperature for 20 min. Thereafter, the plates were centrifuged at 3.500g for 5 min and the lysis solution was replaced by 200 μL/well of Schneider’s insect medium. The culture plates were then incubated at 26 °C for another 4 days to allow transformation of viable amastigotes into promastigotes and proliferation. Afterward, 20 μL/well of 2.5 mM resazurin was added and incubated for another 3 h. Finally, fluorescence emission was measured and IC50 was estimated as described above. All tests were carried out in triplicate. Miltefosine (Sigma-Merck, Madrid, Spain) was used as the reference drug and was evaluated under the same conditions. The IC50 and SI were calculated as in the previous section.

The target of series [5] is Leishmania donovani Promastigotes. Details: method as in J. Med. Chem., ( 1991), 34, 9, 2798. The note with it: ChEMBL dataset, some flagged Outside typical range, ref J. Med. Chem., ( 1991), 34, 9, 2798, read-out: vij, Ki; cited from earlier work.
Setting [6] is: macrophages J774, 24 h exposure, Table 2.
Where [7] appears, read: macrophages J774, Table 3 (amastigote assay table).

Structures are written as SMILES. A value given as a limit tells only on which side of the number the result lay.

Regarding `O=C(c1ccc(Br)cc1)c1cccn1-c1ncccn1` [5af], the CC50 at 24 h in series [1] (setting [6]) and in series [1] (setting [7]) was above 305 µM each time. The “SI (selectivity index, SI = CC50/IC50)” value in series [2] is on record as above 4.54; in series [3], above 2.58; in the series on L. donovani amastigotes (CC50 J774 / IC50 L. donovani amastigotes), above 1.45; in series [4] (CC50 J774 / IC50 L. amazonensis amastigotes) it was above 1.99. The half-inhibitory concentration (IC50) was found to be 67.2 ± 4.94 µM in series [2], 118 ± 25.8 µM in series [3], 211 ± 30.3 µM with L. donovani amastigotes and 153 ± 9.11 µM in series [4].
As for `Cc1cccnc1-n1cccc1C(=O)c1ccc(C(C)(C)C)cc1` [5bc], the CC50 at 24 h in series [1] (setting [6]) and in series [1] (setting [7]) was above 314 µM in each case. Further, the “SI (selectivity index, SI = CC50/IC50)” value was above 10.17 in series [2] and above 1.42 in series [3]. The IC50 is 30.9 ± 3.11 µM in series [2], 221 ± 36.9 µM in series [3], above 100 µg/mL with L. donovani amastigotes and 60.6 ± 7.88 µM in series [4].
As for `C=CCCCC(N)C[C@H]1OC(n2cnc3c(N)ncnc32)[C@H](O)[C@@H]1O` (some centres unmarked) [CHEMBL607696], the Ki in series [5] was 877 µM.
Regarding `Nc1ncnc2c1ncn2C1O[C@H](C[C@@H](N)CC[C@@H](N)C(=O)O)[C@@H](O)[C@H]1O` (some centres unmarked) [CHEMBL608870], the Ki in series [5] was 49 µM.
With `NCCC(CN)C[C@H]1OC(n2cnc3c(N)ncnc32)[C@H](O)[C@@H]1O` (some centres unmarked) [CHEMBL611866], in series [5], the Ki is 1120 µM.
Take `CCCCCCCCCCCCCCCCOP(=O)([O-])OCC[N+](C)(C)C` [miltefosine, reference compound]: the CC50 at 24 h in series [1] (setting [6]) came out at 55.4 ± 4.19 µM; in series [1] (setting [7]), 136 ± 10.2 µM. Also, the concentration for half-maximal inhibition (IC50) amounted to 30.7 ± 8.8 µM in series [2], 0.24 ± 0.02 µM in series [3] and 47.6 ± 7.04 µM in series [4].

The term CC50 denotes the concentration that lowers cell viability or growth by half. The low end stands for harm at low concentration, the high end for better tolerance by the cells. Usually IC50 stands for the concentration at which inhibition is half-maximal. Lower therefore signals greater potency in that assay. The term Ki denotes a measure of affinity in units of concentration, obtained from inhibition or displacement.
